Key:
[1] = tested on: knee osteoarthritis patients; assay: Study II: garlic versus glucosamine sulphate, clinical manifestations; type: in vivo, human
Method: In the second study, I had compared the effect of garlic versus glucosamine on cartilage degeneration in knee osteoarthritis patients. I have chosen glucosamine sulfate to be the comparing drug due to its well known chondroprotective properties and it has been in the market for a while to control the symptoms of knee osteoarthritis.
(§1) Garlic group receive 900 mg of garlic capsules daily for 8 weeks. The glucosamine group received 1500 mg glucosamine sulfate daily for 8 weeks. As regard baseline affection of knee in both groups. The garlic group has bilateral knee OA in 100% of patients and significant knee deformity compared to glucosamine group who were having only Bilateral knee affection in 70% of patients.

MMP13 = assay: Study II: level of MMP13; type: in vivo, human; details: garlic capsules 900 mg daily or glucosamine sulfate 1500 mg daily, 8 weeks; no difference between the groups
Method: as §1

collagenase = assay: Study II: level of collagenase; type: in vivo, human; details: garlic capsules 900 mg daily or glucosamine sulfate 1500 mg daily, 8 weeks; no difference between the groups
Method: as §1

glutathione peroxidase [2] = assay: Study II: level of glutathione peroxidase; type: in vivo, human; details: garlic capsules 900 mg daily or glucosamine sulfate 1500 mg daily, 8 weeks; no difference between the groups
Method: as §1

mice knee osteoarthritis = details: after intake of diet rich in selenium; cited from earlier work
glutathione peroxidase [3] = details: mice, after intake of diet rich in selenium; cited from earlier work
adjuvant arthritis = adjuvant arthritis in rats; cited from earlier work
lupus mice = details: cited from earlier work
[4] = tested on: rheumatoid arthritis patients; details: selenium intake; cited from earlier work

Structure (SMILES)	body mass index, mean percent change ([1]; end of study, glucosamine group vs garlic group)	pain score ([1]; garlic capsules 900 mg daily or glucosamine sulfate 1500 mg daily, 8 weeks)	body mass index ([1]; garlic capsules 900 mg daily or glucosamine sulfate 1500 mg daily, 8 weeks, end of study vs baseline)	level of MMP13 (MMP13)	level of collagenase (collagenase)	level of glutathione peroxidase (glutathione peroxidase [2])	mice knee osteoarthritis (mice knee osteoarthritis)	expression of glutathione peroxidase in synovium (glutathione peroxidase [3])	indices of inflammation (adjuvant arthritis)	indices of inflammation (lupus mice)	pain, swollen and tender joints numbers [4]
N[C@H]1C(O)O[C@H](CO)[C@@H](O)[C@@H]1O.O=S(=O)(O)O (some centres unmarked) [glucosamine sulfate]	higher mean percent change than garlic group	significantly improved in both groups with no difference between groups	did not significantly change	significant reduction	significant reduction	significant reduction					
[Se] [selenium]							significant reduction	increased expression	improved indices of inflammation	improved indices of inflammation	reduction
